Literature values, collected in patent US20060009468A1, “Method for treatment of cancer” (priority 2004, published 2006).

How the values were obtained:
PANC-1 cells = details: after 72 hrs of exposure
MIA PaCa-2 cells = details: after 72 hrs of exposure

For `N=C(N)NOCC[C@H](N)C(=O)O` [L-canavanine, L-Canavanine], the “increase of the percentage of cells in the radiosensitive G2/M phase of the cell cycle, compared to untreated cells” value (PANC-1 cells) is listed as 6 fold and the “increase of the percentage of cells in the radiosensitive G2/M phase of the cell cycle, compared to untreated cells” value (MIA PaCa-2 cells) is listed as 4 fold.
